From paper PMC10175918 (Communications Biology, 2023) come the findings set out here.

Holding throughout (assay): TGFα-shedding assay-based GPCR screening with chimeric Gα subunit proteins
Holding throughout (type): cell-based

The target in experiment [1] is T1, 348 GPCRs (Homo sapiens, UniProt O95838).
T1 construct: expressed in transfected cells; host or cells: HEK293A
T1 sequence (O95838 1-553): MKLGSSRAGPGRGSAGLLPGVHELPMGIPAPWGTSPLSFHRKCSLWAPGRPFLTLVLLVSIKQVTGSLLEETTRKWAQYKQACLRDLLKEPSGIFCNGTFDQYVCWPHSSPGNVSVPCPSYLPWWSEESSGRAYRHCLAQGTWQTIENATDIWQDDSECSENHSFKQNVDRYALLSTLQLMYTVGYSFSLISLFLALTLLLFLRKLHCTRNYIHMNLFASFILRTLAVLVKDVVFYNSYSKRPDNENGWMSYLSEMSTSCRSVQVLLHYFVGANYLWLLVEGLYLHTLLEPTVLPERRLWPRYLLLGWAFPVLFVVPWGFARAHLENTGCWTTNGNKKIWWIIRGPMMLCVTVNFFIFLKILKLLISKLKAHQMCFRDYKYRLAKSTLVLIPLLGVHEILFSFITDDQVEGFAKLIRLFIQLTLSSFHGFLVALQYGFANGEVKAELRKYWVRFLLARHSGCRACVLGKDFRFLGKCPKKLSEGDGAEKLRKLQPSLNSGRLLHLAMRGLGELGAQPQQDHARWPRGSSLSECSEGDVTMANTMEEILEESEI
To be noted: 10µM, Favipiravir 100μM.

Experiment [2] addresses T2, 348 GPCRs (Homo sapiens, UniProt P0DMS8).
T2 construct: expressed in transfected cells; host or cells: HEK293A
T2 sequence (P0DMS8 1-318): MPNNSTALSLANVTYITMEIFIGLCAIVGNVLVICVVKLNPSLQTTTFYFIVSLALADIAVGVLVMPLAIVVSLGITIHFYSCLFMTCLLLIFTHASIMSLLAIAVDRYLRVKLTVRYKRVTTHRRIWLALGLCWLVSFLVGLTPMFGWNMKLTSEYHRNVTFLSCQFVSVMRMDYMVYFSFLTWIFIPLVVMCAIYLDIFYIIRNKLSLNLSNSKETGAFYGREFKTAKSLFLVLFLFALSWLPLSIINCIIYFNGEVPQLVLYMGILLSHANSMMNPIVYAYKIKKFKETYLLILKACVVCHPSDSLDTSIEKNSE
Conditions: 10µM, Favipiravir 100μM.

Experiment [3] addresses T3, 348 GPCRs (Homo sapiens, UniProt P32239).
T3 sequence (P32239 1-447): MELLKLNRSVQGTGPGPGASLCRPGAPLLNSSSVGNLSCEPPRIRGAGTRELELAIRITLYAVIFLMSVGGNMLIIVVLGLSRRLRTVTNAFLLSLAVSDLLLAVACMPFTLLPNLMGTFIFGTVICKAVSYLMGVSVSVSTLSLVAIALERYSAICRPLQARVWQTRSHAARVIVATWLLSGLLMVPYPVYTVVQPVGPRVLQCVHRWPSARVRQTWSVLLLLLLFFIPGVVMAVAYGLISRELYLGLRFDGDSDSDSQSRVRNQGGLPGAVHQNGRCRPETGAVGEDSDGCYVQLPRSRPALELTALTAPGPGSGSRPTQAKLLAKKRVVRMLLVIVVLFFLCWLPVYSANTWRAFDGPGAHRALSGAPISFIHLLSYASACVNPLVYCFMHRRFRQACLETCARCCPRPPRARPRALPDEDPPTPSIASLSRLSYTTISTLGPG
To be noted: 10µM, Favipiravir 100μM.

For experiment [4], the target named is T4, 348 GPCRs (Homo sapiens, UniProt Q13324).
T4 construct: expressed in transfected cells; host or cells: HEK293A
T4 sequence (Q13324 1-411): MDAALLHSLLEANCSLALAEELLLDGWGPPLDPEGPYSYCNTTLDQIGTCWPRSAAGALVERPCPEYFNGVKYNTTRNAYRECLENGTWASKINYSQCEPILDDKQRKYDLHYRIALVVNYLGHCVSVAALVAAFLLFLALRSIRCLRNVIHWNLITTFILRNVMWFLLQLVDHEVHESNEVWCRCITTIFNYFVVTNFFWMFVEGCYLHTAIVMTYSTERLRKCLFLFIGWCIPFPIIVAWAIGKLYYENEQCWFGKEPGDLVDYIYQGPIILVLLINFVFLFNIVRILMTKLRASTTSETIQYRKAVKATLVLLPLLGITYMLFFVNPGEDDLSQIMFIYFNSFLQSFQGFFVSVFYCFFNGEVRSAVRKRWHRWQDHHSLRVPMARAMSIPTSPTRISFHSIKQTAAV

For experiment [5], the target named is T5, 348 GPCRs (Homo sapiens, UniProt Q15761).
T5 construct: expressed in transfected cells; host or cells: HEK293A
T5 sequence (Q15761 1-445): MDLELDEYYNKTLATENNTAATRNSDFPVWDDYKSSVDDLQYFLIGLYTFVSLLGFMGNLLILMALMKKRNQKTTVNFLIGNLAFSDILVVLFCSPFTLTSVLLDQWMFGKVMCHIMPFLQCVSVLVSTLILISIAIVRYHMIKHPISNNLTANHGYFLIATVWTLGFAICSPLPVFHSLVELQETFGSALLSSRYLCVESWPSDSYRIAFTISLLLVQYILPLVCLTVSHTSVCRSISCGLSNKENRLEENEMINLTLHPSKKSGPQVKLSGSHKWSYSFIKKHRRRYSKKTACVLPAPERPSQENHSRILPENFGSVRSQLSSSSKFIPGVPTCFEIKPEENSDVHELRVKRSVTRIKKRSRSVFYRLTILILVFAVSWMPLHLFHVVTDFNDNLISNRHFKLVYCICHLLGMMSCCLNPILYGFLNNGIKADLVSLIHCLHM
To be noted: 10µM, Favipiravir 100μM.

Experiment [6] concerns the target T6, 348 GPCRs (Homo sapiens, UniProt Q9GZP7).
T6 construct: expressed in transfected cells; host or cells: HEK293A
T6 sequence (Q9GZP7 1-353): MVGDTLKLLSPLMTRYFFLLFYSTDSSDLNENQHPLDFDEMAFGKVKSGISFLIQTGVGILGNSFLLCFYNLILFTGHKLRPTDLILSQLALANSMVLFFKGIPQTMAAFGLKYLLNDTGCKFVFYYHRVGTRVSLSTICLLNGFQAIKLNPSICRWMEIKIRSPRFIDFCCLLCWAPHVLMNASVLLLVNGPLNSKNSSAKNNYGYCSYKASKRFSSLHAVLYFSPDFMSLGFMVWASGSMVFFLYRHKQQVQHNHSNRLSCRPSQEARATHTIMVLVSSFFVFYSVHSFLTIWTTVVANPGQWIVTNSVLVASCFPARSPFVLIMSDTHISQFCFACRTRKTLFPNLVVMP

[7] abbreviates: read-out: % GPCR activation compared to TPA, GLP2R (glucagon like peptide 2 receptor).
Where [8] appears, read: read-out: % GPCR activation compared to TPA, ADORA3 (adenosine A3 receptor).
Setting [9] is: read-out: % GPCR activation compared to TPA, CCKBR (cholecystokinin B receptor).
[10] abbreviates: read-out: % GPCR activation compared to TPA, GPCR CRHR2 (corticotropin releasing hormone receptor 2).
Where [11] appears, read: read-out: % GPCR activation compared to TPA, NPY5R (neuropeptide Y Receptor Y5).
[12] abbreviates: read-out: % GPCR activation compared to TPA, GPCR VN1R1 (vomeronasal 1 receptor).
Where [13] appears, read: GLP2R (glucagon like peptide 2 receptor), read-out: % GPCR activation compared to TPA.
Setting [14] is: ADORA3 (adenosine A3 receptor), read-out: % GPCR activation compared to TPA.
The mark [15] stands for this setting: CCKBR (cholecystokinin B receptor), read-out: % GPCR activation compared to TPA.
The mark [16] stands for this setting: NPY5R (neuropeptide Y Receptor Y5), read-out: % GPCR activation compared to TPA.
Setting [17] is: GPCR CRHR2 (corticotropin releasing hormone receptor 2), read-out: % GPCR activation compared to TPA.
Setting [18] is: GPCR VN1R1 (vomeronasal 1 receptor), read-out: % GPCR activation compared to TPA.

Where two headings read alike, the source gives them in different places.

For the molecule `CC(C)OC(=O)[C@H](C)N[P@](=O)(OC[C@H]1O[C@@H](n2ccc(=O)[nH]c2=O)[C@](C)(F)[C@@H]1O)Oc1ccccc1` [sofosbuvir], the activation at 10 µM at 348 GPCRs [1] (setting [7]) was -0.662%; at 348 GPCRs [2] (setting [8]), -1.59%; at 348 GPCRs [4] (setting [10]) it was 2.1%; at 348 GPCRs [6] (setting [12]), -0.898%. Besides, the activation at 100 µM at 348 GPCRs [3] (setting [9]) is -2.44%; at 348 GPCRs [5] (setting [11]) it was -4.22%.
For `NC(=O)c1nc(F)cnc1O` [favipiravir, 6-fluoro-3-hydroxy-2-pyrazinecarboxamide], the activation at 10 µM on 348 GPCRs [1] (setting [13]) came out at 2.97%; at 348 GPCRs [2] (setting [14]), 2.09%. The activation at 100 µM at 348 GPCRs [3] (setting [15]) was 4.12%; at 348 GPCRs [4] (GPCR CRHR2 (corticotropin releasing hormone receptor 2), 100μM, read-out: % GPCR activation compared to TPA), -0.529%; at 348 GPCRs [5] (setting [16]) it was -1.82%; on 348 GPCRs [6] (GPCR VN1R1 (vomeronasal 1 receptor), 100μM, read-out: % GPCR activation compared to TPA), 1.77%.
`CCC(CC)COC(=O)[C@H](C)N[P@](=O)(OC[C@H]1O[C@@](C#N)(c2ccc3c(N)ncnn23)[C@H](O)[C@@H]1O)Oc1ccccc1` [remdesivir]: the activation at 10 µM at 348 GPCRs [1] (setting [7]) amounted to 1.76%; at 348 GPCRs [2] (setting [8]), 5.91%; at 348 GPCRs [4] (setting [10]) it was 1.58%; on 348 GPCRs [6] (setting [12]) it was 3.04%. The activation at 100 µM was 7.72% on 348 GPCRs [3] (setting [9]) and 0.934% at 348 GPCRs [5] (setting [11]).
On to `N#C[C@@]1(c2ccc3c(N)ncnn23)O[C@H](CO)[C@@H](O)[C@H]1O` [GS441524], for which the activation at 10 µM was found to be 1.04% on 348 GPCRs [1] (setting [13]), 2.73% on 348 GPCRs [2] (setting [14]), 0.656% on 348 GPCRs [4] (setting [17]) and 2.87% on 348 GPCRs [6] (setting [18]). Further, the values for the activation at 100 µM on 348 GPCRs [3] (setting [15]) and at 348 GPCRs [5] (setting [16]) were 6.14% and 0.212%, respectively.
With `CC(C)C(=O)OC[C@H]1O[C@@H](n2ccc(NO)nc2=O)[C@H](O)[C@@H]1O` [molnupiravir], the activation at 10 µM at 348 GPCRs [1] (setting [13]) was 0.598%; at 348 GPCRs [2] (setting [14]), -0.751%; at 348 GPCRs [4] (setting [17]), -0.005%; on 348 GPCRs [6] (setting [18]) it was -1.19%. The results for the activation at 100 µM on 348 GPCRs [3] (setting [15]) and on 348 GPCRs [5] (setting [16]) were -2.83% and -5.02%, respectively.
